The target of one data set is T1, Aurora kinase A (Homo sapiens, UniProt O14965).
T1 sequence (O14965 whole entry): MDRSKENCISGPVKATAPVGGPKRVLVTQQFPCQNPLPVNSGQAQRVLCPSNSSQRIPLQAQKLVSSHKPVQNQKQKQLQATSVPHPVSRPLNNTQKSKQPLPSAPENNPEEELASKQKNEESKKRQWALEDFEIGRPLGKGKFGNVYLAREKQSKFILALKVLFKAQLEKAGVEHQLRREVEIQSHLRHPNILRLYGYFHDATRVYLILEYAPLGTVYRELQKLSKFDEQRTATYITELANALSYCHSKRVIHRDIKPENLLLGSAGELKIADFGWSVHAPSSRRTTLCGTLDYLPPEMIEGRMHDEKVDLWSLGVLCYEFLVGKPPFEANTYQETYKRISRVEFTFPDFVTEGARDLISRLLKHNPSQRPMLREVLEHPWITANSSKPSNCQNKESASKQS
Description: Inhibition of Aurora A (unknown origin) using STK S2 as substrate after 40 mins by HTRF assay. A general note: Time-resolved FRET reads energy transfer from a long-lived donor to a nearby acceptor.

The next data set addresses Aurora kinase B (Homo sapiens, UniProt Q96GD4). In words: Inhibition of Aurora B (unknown origin) using STK S2 as substrate after 30 mins by HTRF assay.
The target in data set [1] is Vascular endothelial growth factor receptor 2 (Homo sapiens, UniProt P35968). In words: biochemical. Type of data set: cell-based, Sf21.
Chain of Vascular endothelial growth factor receptor 2 (P35968 whole entry): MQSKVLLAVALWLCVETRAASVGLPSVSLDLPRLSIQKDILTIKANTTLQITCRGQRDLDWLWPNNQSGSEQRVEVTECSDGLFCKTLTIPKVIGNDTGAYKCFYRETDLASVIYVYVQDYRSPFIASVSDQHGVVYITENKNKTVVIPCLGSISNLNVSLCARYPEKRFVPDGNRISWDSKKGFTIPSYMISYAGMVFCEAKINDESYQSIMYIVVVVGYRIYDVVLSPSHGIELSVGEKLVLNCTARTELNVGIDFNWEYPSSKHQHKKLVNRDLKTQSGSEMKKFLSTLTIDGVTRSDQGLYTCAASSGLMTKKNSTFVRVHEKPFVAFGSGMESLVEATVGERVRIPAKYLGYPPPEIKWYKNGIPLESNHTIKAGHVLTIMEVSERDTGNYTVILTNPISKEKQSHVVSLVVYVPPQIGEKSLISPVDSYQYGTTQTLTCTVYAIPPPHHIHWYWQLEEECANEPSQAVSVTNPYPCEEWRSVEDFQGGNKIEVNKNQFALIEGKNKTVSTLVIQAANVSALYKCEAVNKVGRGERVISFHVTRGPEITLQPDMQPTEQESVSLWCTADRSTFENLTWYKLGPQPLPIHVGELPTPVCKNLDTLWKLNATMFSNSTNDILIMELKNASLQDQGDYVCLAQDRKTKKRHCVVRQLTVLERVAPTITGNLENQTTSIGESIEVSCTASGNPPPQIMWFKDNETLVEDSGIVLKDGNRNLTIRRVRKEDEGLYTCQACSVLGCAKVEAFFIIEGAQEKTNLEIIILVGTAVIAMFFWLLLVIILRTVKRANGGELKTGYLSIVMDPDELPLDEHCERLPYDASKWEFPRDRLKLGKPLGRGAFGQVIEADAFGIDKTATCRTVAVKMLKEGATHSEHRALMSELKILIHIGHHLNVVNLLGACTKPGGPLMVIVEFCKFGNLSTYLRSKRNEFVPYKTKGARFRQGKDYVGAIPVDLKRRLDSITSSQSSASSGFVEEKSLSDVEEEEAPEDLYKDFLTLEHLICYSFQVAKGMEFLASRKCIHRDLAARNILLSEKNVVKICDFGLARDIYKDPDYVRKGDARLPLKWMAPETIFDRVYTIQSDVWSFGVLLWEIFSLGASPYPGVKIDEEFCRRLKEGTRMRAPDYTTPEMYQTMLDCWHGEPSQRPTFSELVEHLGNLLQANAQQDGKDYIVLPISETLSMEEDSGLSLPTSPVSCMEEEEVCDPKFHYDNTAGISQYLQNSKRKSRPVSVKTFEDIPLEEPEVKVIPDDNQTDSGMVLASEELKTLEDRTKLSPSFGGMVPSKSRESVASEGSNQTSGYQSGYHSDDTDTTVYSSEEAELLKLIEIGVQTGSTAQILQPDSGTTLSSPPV
Description: Inhibition of recombinant human N-terminal His6-tagged KDR (790 to end residues) expressed in baculovirus infected Sf21 insect cells after 60 mins by ELISA
Data set [2] concerns the target Receptor tyrosine-protein kinase erbB-2 (Homo sapiens) (UniProt P04626). In words: Inhibition of recombinant human Erbb2 at 1000 nM after 60 mins by ELISA relative to control. (In an ELISA, binding on a coated surface is turned into a signal by an enzyme label.)
Data set [3] deals with SNU-5. In words: Antiproliferative activity against human SNU5 cells after 72 hrs by CCK8 assay. The class given is functional, cell-based. The note with it: SNU-5, 72 h.
The test system of a further data set is MKN-45. Description: Antiproliferative activity against human MKN45 cells after 72 hrs by sulforhodamine B assay. The class given is functional, cell-based. The settings on record: MKN-45, 72 h. (In SRB staining, fixed cells bind dye roughly in proportion to their protein.)
In the next data set the test system is MKN-74. In words: Antiproliferative activity against human MKN74 cells after 72 hrs by sulforhodamine B assay. The class given is functional, cell-based. The settings on record: MKN-74, 72 h.
A further data set concerns SGC-7901. In words: Antiproliferative activity against human SGC7901 cells after 72 hrs by sulforhodamine B assay. Type of data set: functional, cell-based. The note with it: SGC-7901, 72 h.
The subject of another data set is BGC-823. Description: Antiproliferative activity against human BGC823 cells after 72 hrs by sulforhodamine B assay. Type of data set: functional, cell-based. The note with it: BGC-823, 72 h.
Data set [4] deals with SNU-5. Description: Antitumor activity against human SNU5 cells xenografted in nude mouse assessed as delay in tumor tumor growth at 30 mg/kg, po qd for 21 days relative to control. The class given is functional.
Data set [5] concerns Mus musculus. Description: Toxicity in nude mouse xenografted with human SNU5 cells assessed as mortality at 30 mg/kg, po qd for 21 days. The settings on record: in vivo, 504 h. The class given is organism-based.
Data set [6] deals with Mus musculus. In words: Toxicity in nude mouse xenografted with human SNU5 cells assessed as body weight at 30 mg/kg, po qd for 21 days (reference value: 19.6 g). Type of data set: organism-based. The settings on record: in vivo, 504 h.
Data set [7] addresses Platelet-derived growth factor receptor beta (Homo sapiens) (UniProt P09619). In words: Inhibition of recombinant human PDGFRbeta at 1000 nM after 60 mins by ELISA relative to control.
The target in data set [8] is Proto-oncogene tyrosine-protein kinase receptor Ret (Homo sapiens) (UniProt P07949). Description: Inhibition of recombinant human RET at 1000 nM after 60 mins by ELISA relative to control.
Chain of Proto-oncogene tyrosine-protein kinase receptor Ret (Homo sapiens) (P07949 whole entry): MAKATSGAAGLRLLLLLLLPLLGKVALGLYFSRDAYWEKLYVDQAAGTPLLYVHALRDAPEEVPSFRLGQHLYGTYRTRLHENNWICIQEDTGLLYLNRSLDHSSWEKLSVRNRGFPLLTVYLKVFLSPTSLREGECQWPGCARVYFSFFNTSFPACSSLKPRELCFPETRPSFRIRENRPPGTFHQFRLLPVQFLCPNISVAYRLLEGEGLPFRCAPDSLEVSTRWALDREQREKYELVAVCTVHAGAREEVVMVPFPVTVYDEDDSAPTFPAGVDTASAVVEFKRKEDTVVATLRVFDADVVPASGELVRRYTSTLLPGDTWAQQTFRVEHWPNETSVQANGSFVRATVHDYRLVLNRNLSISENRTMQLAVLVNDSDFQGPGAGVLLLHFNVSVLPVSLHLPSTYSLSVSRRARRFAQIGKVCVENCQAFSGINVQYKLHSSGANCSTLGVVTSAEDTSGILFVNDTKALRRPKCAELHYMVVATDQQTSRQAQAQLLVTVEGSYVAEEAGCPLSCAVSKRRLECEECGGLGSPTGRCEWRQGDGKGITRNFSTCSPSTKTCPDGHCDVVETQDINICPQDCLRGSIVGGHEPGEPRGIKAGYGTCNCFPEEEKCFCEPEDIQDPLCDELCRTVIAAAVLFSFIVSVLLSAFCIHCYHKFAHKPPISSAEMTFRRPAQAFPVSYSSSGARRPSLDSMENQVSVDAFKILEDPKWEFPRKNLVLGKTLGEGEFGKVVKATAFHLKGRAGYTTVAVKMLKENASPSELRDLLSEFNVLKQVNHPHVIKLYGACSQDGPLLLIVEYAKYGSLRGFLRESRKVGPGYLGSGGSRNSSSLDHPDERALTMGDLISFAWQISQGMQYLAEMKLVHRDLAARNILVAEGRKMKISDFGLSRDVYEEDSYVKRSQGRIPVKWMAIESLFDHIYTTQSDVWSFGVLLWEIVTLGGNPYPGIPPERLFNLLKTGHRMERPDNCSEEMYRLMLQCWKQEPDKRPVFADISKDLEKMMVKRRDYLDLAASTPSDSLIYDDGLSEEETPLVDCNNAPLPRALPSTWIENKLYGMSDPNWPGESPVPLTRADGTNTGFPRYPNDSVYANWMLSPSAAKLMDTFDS

We go through 21 molecules from ChEMBL document CHEMBL4265936, “Pyrazolo[4,3-b]pyrimido[4,5-e][1,4]diazepine derivatives as new multi-targeted inhibitors of Aurora A/B and KDR” (Eur J Med Chem, 2018).

Chain of Aurora kinase B (Q96GD4 whole entry): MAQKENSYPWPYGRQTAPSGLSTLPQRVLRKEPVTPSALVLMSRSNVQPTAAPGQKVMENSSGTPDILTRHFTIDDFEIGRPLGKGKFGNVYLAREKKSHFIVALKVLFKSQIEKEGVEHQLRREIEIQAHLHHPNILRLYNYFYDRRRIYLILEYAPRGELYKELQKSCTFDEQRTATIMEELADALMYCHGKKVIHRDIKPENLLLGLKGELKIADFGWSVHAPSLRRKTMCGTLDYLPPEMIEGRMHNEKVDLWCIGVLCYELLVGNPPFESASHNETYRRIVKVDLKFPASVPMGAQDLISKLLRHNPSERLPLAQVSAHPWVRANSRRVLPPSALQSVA
Chain of Platelet-derived growth factor receptor beta (Homo sapiens) (P09619 whole entry): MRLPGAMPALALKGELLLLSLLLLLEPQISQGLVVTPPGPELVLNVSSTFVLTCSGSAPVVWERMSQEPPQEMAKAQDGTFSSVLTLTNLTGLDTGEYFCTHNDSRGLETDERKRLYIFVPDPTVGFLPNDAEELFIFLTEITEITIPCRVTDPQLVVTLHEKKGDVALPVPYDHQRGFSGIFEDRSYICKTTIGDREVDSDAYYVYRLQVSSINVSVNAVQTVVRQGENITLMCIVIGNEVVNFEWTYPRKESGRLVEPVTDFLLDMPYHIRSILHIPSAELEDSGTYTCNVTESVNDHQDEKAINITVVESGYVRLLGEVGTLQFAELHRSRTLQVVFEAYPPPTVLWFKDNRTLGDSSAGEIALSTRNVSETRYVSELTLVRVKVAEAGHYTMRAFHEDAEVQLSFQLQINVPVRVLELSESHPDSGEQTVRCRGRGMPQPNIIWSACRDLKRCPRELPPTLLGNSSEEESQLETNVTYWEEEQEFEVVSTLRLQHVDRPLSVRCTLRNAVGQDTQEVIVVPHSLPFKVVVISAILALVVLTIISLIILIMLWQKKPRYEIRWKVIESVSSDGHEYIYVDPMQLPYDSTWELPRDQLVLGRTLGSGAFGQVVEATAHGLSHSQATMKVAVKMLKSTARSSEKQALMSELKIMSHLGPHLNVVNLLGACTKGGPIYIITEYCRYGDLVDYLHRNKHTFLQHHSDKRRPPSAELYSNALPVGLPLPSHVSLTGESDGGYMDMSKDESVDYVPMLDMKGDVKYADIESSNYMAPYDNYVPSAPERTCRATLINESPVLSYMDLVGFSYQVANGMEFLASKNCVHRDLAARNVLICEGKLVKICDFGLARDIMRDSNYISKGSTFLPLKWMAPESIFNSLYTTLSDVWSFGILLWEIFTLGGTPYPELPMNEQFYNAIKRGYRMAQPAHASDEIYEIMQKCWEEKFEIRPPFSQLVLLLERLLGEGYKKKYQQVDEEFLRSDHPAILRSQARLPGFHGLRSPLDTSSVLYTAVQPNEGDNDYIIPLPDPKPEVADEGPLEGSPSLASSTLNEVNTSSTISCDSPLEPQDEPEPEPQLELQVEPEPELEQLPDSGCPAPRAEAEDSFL

Broadly, the IC50 is the concentration needed to halve the response being measured. Take `CSc1ncc2c(n1)Nc1n[nH]c(C)c1N=C2c1ccccc1C(F)(F)F`: the 50% inhibitory concentration (IC50) amounted to 0.128 µM against Aurora kinase A, 0.307 µM on Aurora kinase B and 0.205 µM in data set [1].
As to `Cc1ccc(C2=Nc3c(n[nH]c3C)Nc3nc(N4CCN(C)CC4)ncc32)cc1`, the figures for the IC50 (at Aurora kinase A; at Aurora kinase B; in data set [1]) were 0.108 µM, 0.086 µM and 0.0247 µM, respectively.
For `CSc1ncc2c(n1)Nc1n[nH]c(C)c1N=C2c1ccccc1C`, in that order: 0.075 µM, 0.611 µM and 0.11 µM.
A word on the inhibition: it is the drop in the measured response relative to a control, in per cent. With `CN(C)C/C=C/C(=O)Nc1cc2c(Nc3ccc(F)c(Cl)c3)ncnc2cc1O[C@H]1CCOC1`, the inhibition in data set [2] is 97.6%.
As to `COc1ccccc1C1=Nc2c(n[nH]c2C)Nc2nc(SC)ncc21`, the IC50 was found to be 0.191 µM on Aurora kinase A, 2.32 µM against Aurora kinase B and 0.102 µM in data set [1].
As for `CSc1ncc2c(n1)Nc1n[nH]c(C)c1N=C2c1ccccc1`, the values for the IC50 (on Aurora kinase A; against Aurora kinase B; in [1]) were 0.193 µM, 0.894 µM and 0.697 µM, respectively.
Consider `CSc1ncc2c(n1)Nc1n[nH]c(C)c1N=C2c1ccc(C(F)(F)F)cc1`, for which the IC50 at Aurora kinase A stood at 0.423 µM; at Aurora kinase B it was 0.854 µM; in data set [1] it was 0.209 µM.
As to `CCN(CC)c1ncc2c(n1)Nc1n[nH]c(C)c1N=C2c1ccc(C)cc1`, the results for the IC50 (on Aurora kinase A; against Aurora kinase B; in data set [1]) were 0.268 µM, 0.322 µM and 0.0083 µM, respectively.
Turning to `CNc1ncc2c(n1)Nc1n[nH]c(C)c1N=C2c1ccc(C)cc1`, the results for the IC50 (against Aurora kinase A; against Aurora kinase B; in data set [1]) were 0.397 µM, 0.352 µM and 0.199 µM, respectively.
On to `CSc1ncc2c(n1)Nc1n[nH]c(C)c1N=C2c1ccccc1Cl`, for which the IC50 was found to be 0.094 µM against Aurora kinase A, 0.278 µM on Aurora kinase B and 0.0837 µM in data set [1].
Consider `COc1ccc(C2=Nc3c(n[nH]c3C)Nc3nc(SC)ncc32)cc1`, for which the half-maximal inhibitory concentration (IC50) at Aurora kinase A was 0.093 µM; against Aurora kinase B, 2.68 µM; in data set [1] it was 0.43 µM.
Take `COc1cccc2c1C(=O)c1c(O)c3c(c(O)c1C2=O)C[C@@](O)(C(=O)CO)C[C@@H]3O[C@H]1C[C@H](N)[C@H](O)[C@H](C)O1` [DOXORUBICIN]: the IC50 was 0.237 µM in the data set with SNU-5 [3]; 0.127 µM in the data set on MKN-45; 0.204 µM in the data set with MKN-74; 0.13 µM with SGC-7901; 0.405 µM with BGC-823.
Usually T/C stands for the ratio of treated to control. On to `COc1cc2nccc(Oc3ccc(NC(=O)C4(C(=O)Nc5ccc(F)cc5)CC4)cc3)c2cc1OC` [CABOZANTINIB], for which the T/C in the data set on SNU-5 [4] is reported as 8.41%. In addition, the figures for the Activity entry in the data set with Mus musculus [5] and with Mus musculus [6] were “Non-Toxic” and 19.9 g, respectively.
Take `CSc1ncc2c(n1)Nc1n[nH]c(C)c1N=C2c1cccc(Cl)c1`: the IC50 on Aurora kinase A came out at 0.102 µM; against Aurora kinase B, 1 µM; in [1] it was 0.141 µM.
Take `Cc1ccc(C2=Nc3c(n[nH]c3C)Nc3nc(N4CCCCC4)ncc32)cc1`: the IC50 is 0.0776 µM against Aurora kinase A, 0.0503 µM against Aurora kinase B and 0.03 µM in data set [1].
As for `CSc1ncc2c(n1)Nc1n[nH]c(C)c1N=C2c1ccc(Cl)cc1`, the IC50 against Aurora kinase A stood at 0.183 µM; against Aurora kinase B, 1.62 µM; in [1], 0.318 µM.
As to `Cc1ccc(C2=Nc3c(n[nH]c3C)Nc3nc(NC(C)(C)C)ncc32)cc1`, the IC50 against Aurora kinase A was 0.357 µM; against Aurora kinase B, 1.18 µM; in [1], 0.0845 µM.
Take `CSc1ncc2c(n1)Nc1n[nH]c(C)c1N=C2c1cccc(F)c1`: the IC50 against Aurora kinase A was determined as 0.167 µM; on Aurora kinase B, 0.611 µM; in data set [1] it was 0.33 µM.
Regarding `Cc1ccc(C2=Nc3c(n[nH]c3C)Nc3nc(NC(C)C)ncc32)cc1`, the IC50 turned out to be 0.0631 µM at Aurora kinase A, 0.0541 µM against Aurora kinase B and 0.0303 µM in data set [1].
Consider `CCN(CC)CCNC(=O)c1c(C)[nH]c(/C=C2\C(=O)Nc3ccc(F)cc32)c1C`, for which the inhibition turned out to be 75.7% in data set [7] and 76.7% in data set [8].
In the case of `CSc1ncc2c(n1)Nc1n[nH]c(C)c1N=C2c1ccc(C)cc1`, the IC50 came out at 0.0706 µM on Aurora kinase A, 0.0998 µM at Aurora kinase B and 0.157 µM in data set [1].
